Data on six molecules can be found in PMC5031696, “Synthesis, Biodistribution and In vitro Evaluation of Brain Permeable High Affinity Type 2 Cannabinoid Receptor Agonists [^11C]MA2 and [^18F]MA3” (Frontiers in Neuroscience, 2016).

Where two headings read alike, the source gives them in different places.

The target in assay [1] is T1, hCB2 (Homo sapiens, UniProt P34972).
T1 construct: host or cells: CHO-K1 beta-arrestin cells
Nature of the assay: functional cAMP assay, hCB2. It is filed as cell-based. Conditions: for functional behaviour in cAMP assay: hCB2. On the procedure: (§1) CHO-K1 beta-arrestin cells (DiscoveRx, Fremont, CA) expressing hCB2, mouse CB2 (mCB2), and human CB1 (hCB1) were cultured in F-12 Nutrient Mixture (HAM) supplemented with 10% fetal bovine serum (FBS), 300 μg/mL hygromycin and 800 μg/mL geneticin (G418). Cells were incubated in a humidified atmosphere at 37°C with 5% CO2.
(§2) cAMP was measured using cAMP-Nano-TRF detection kit (Roche Diagnostics, Penzberg, Germany). Cells were seeded 17–24 h prior to the experiment 3 × 10^4 cells per well in a black 96-well plate with flat clear bottom (Corning, Wiesbaden, Germany) in growth medium and incubated in 5% CO2 at 37°C in a humidified incubator. The growth medium was exchanged with Krebs Ringer bicarbonate buffer with 1 mmol/L 3-isobutyl-1-methylxanthine (IBMX), 0.1% fatty acid-free bovine serum albumin (BSA) and incubated at 30°C for 60 min. Agonist was added to a final assay volume of 100 μL and the mixture was incubated for 30 min at 30°C. The assay was stopped by the addition of 50 μL 3x lysis reagent and shaken for 2 h at room temperature. The time-resolved energy transfer was measured using an LF502 Nanoscan FLT (IOM, Berlin, Germany), equipped with a laser as excitation source. cAMP content was determined from the function of a standard curve spanning from 10 to 0.13 nmol/L cAMP.
On the technique in general: Changes in cAMP serve as a functional read-out for many G protein-coupled receptors.

Assay [2] deals with T2, mCB2 (Mus musculus, UniProt P47936).
T2 construct: host or cells: CHO-K1 beta-arrestin cells
T2 sequence (P47936 whole entry): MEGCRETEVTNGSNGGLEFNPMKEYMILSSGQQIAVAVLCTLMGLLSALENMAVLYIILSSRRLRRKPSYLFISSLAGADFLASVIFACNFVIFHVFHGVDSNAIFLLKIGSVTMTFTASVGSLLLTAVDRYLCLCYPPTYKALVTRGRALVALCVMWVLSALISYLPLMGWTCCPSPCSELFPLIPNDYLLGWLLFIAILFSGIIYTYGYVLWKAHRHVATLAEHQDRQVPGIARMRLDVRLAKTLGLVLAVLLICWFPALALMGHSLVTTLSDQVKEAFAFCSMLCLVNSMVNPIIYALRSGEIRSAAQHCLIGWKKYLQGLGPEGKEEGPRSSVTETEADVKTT
Nature of the assay: functional cAMP assay, mCB2. Format: cell-based. On the procedure:
as §1, §2

Assay [3] concerns the target T3, hCB1 (Homo sapiens, UniProt P21554).
T3 construct: host or cells: CHO-K1 beta-arrestin cells
Nature of the assay: functional cAMP assay, hCB1 versus hCB2. It is filed as cell-based. Conditions: cAMP assays. As for the experimental part: as §1, §2

In assay [4] the target is T1, hCB2. Nature of the assay: radioligand binding assay with [^3H]CP55940, hCB2. On the procedure:
as §1
(§3) Stably transfected cells were treated for 24 h with 5 mM butyrate in growth medium before harvesting, followed by homogenization in 15 mmol/L Hepes, 0.3 mmol/L EDTA, 1 mmol/L EGTA, 2 mmol/L MgCl2, complete EDTA-free protease inhibitor (Roche Applied Science, Rotkreuz, Switzerland), pH 7.4 using a glass potter and centrifugation at 47,800 g at 4°C for 30 min. The pellet was then rehomogenized twice in the same buffer and centrifuged (47,800 g, 4°C, 30 min). The final pellet was then resuspended in 75 mmol/L Tris, 0.3 mmol/L EDTA, 1 mmol/L EGTA, 12.5 mmol/L MgCl2, 250 mmol/L sucrose, pH 7.4 at a protein concentration of 1 to 3 mg/mL, aliquoted, frozen on dry ice and stored at −80°C. Saturation binding was performed with 0.05 to 2.6 nM [^3H]CP55940 (Perkin Elmer) and 1.0 μg of membrane protein. CP55940 (10 μM) was used to define non-specific binding. More than 95% of the total binding signal was specific. Assay buffer consisted of 50 mmol/L Tris-HCl, 5 mmol/L MgCl2, 2.5 mmol/L EGTA, and 0.1% fatty acid-free BSA, pH 7.4. Assays were initiated by addition of membranes in a final volume of 250 μL/well. Mixtures were incubated for 3 h at room temperature and then vacuum filtered and rinsed with wash buffer (50 mmol/L Tris-HCl, 5 mmol/L MgCl2, 2.5 mmol/L EGTA, and 0.5% fatty acid-free BSA, pH 7.4) on a Filtermate cell harvester through Packard GF/B filters presoaked in 0.3% polyethylenimine.
(§4) For competition binding, membrane preparations were incubated with 0.3 nM [^3H]CP55940 in the presence or absence of increasing concentrations of ligands for 60 min at 30°C in a final volume of 0.2 mL of 50 mmol/L Tris-HCl, 5 mmol/L MgCl2, 2.5 mmol/L EGTA, 0.1% fatty acid-free BSA, and 1% DMSO, pH 7.4, buffer, gently shaking. Non-specific binding was defined with 10 μM CP55940. All binding reactions were terminated by vacuum filtration onto 0.5% polyethylenimine presoaked GF/B filter plates (Packard) followed by seven brief washes with 2 mL of ice-cold binding buffer containing 0.5% fatty acid-free BSA. Plates were dried at 50°C for 1 h and liquid scintillation counting was used to determine bound radiolabel. IC50 values and Hill slopes were determined by a four parameter logistic model using ActivityBase (ID Business Solution, Guilford, UK). pKi values were determined by the generalized Cheng-Prusoff equation (Yung-Chi and Prusoff, [1973]).

Assay [5] addresses T3, hCB1. Nature of the assay: radioligand binding assay with [^3H]CP55940, hCB1. Conditions: for Ki ratio hCB1/hCB2: selectivity. As for the experimental part:
as §1, §3, §4

Assay [6] deals with T2, mCB2. Nature of the assay: radioligand binding assay with [^3H]CP55940, mCB2. On the procedure:
as §1, §3, §4

Another assay has as its system CB2. Also noted: method as in Evens et al., 2011. Conditions: ref Evens et al., 2011; cited from earlier work.
[7] abbreviates: CHO-K1 cells expressing hCB2, read-out: hCB2 cAMP EC50.
Where [8] appears, read: CHO-K1 cells expressing mCB2, read-out: mCB2 cAMP EC50.
The mark [9] stands for this setting: competition with [^3H]CP55940, read-out: hCB2 Ki.
Where [10] appears, read: competition with [^3H]CP55940, read-out: hCB1 Ki.
[11] abbreviates: competition with [^3H]CP55940, read-out: mCB2 Ki.

T1 sequence (P34972 whole entry): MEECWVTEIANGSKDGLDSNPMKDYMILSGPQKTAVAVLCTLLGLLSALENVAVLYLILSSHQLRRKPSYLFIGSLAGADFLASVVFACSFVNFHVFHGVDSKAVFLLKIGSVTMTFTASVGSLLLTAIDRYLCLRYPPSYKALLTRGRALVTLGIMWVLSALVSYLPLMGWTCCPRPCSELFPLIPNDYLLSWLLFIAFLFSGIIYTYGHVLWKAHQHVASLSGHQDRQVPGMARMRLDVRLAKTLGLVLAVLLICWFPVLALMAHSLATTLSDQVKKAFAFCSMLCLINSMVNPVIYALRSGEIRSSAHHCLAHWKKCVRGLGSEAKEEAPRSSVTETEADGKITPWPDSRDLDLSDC
T3 sequence (P21554 whole entry): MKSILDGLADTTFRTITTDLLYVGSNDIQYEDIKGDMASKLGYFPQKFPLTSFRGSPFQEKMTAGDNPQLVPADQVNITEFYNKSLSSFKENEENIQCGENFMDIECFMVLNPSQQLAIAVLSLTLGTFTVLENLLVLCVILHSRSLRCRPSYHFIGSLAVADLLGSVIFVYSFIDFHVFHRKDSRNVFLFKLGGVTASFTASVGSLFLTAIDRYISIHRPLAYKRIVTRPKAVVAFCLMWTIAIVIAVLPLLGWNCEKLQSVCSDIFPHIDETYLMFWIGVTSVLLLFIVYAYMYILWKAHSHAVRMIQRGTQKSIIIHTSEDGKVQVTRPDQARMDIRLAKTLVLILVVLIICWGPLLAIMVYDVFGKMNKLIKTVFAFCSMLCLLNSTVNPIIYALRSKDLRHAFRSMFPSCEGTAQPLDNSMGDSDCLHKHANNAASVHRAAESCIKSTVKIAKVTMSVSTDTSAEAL

The term EC50 denotes the concentration needed to bring the measured effect to its halfway point. Usually Ki stands for the dissociation constant of the complex between target and ligand, obtained from inhibition or displacement. As for `Fc1ccc(-c2noc(CCCNc3cnc4ccc(OC(F)(F)F)cc4c3)n2)c(Cl)c1` [Compound 12, reference compound], the “hCB2 cAMP % eff (efficacy)” value at hCB2 [1] (CHO-K1 cells expressing hCB2) worked out at 100%. Further, the EC50 on hCB2 [1] (setting [7]) is 0.15 nM; at mCB2 [2] (setting [8]), 0.18 nM. In addition, at hCB2 [1], the “functional behaviour in cAMP assay” value is listed as “agonists”. Further, the “mCB2 cAMP % eff (efficacy)” value on mCB2 [2] (CHO-K1 cells expressing mCB2) is recorded as 100%. In addition, the “EC50 ratio hCB1/hCB2” value at hCB1 [3] is 1300. For the same molecule, the figures for the Ki at hCB2 [4] (setting [9]), at hCB1 [5] (setting [10]) and at mCB2 [6] (setting [11]) were 2.8 nM, 568 nM and 4.6 nM, respectively. Besides, the “Ki ratio hCB1/hCB2” value at hCB1 [5] is given as 202.
Take `COc1ccc2ncc(NCCCc3nc(-c4ccc(F)cc4Cl)no3)cc2c1` [MA2, N-(3-(3-(2-chloro-4-fluorophenyl)-1,2,4-oxadiazol-5-yl)propyl)-6-methoxyquinolin-3-amine]: the values for the concentration giving a half-maximal response (EC50) at hCB2 [1] and on mCB2 [2] were 3 nM and 2 nM, respectively. Further, at hCB2 [1] (CHO-K1 cells expressing hCB2), the “hCB2 cAMP % eff (efficacy)” value was determined as 101%. Further, the “functional behaviour in cAMP assay” value at hCB2 [1] is “agonists”. For the same molecule, the “mCB2 cAMP % eff (efficacy)” value on mCB2 [2] (CHO-K1 cells expressing mCB2) was found to be 100%. Besides, the “EC50 ratio hCB1/hCB2” value at hCB1 [3] was 430. In addition, the inhibition constant Ki was 87 nM at hCB2 [4], 1610 nM at hCB1 [5] and 241 nM on mCB2 [6]. At hCB1 [5], the “Ki ratio hCB1/hCB2” value turned out to be 19.
As for `FCCOc1ccc2ncc(NCCCc3nc(-c4ccc(F)cc4Cl)no3)cc2c1` [MA3, 6-(2-Fluoroethoxy)-N-(3-(3-(2-chloro-4-fluorophenyl)-1,2,4-oxadiazol-5-yl)propyl)quinolin-3-amine], the “hCB2 cAMP % eff (efficacy)” value at hCB2 [1] (CHO-K1 cells expressing hCB2) was determined as 102%. Moreover, the EC50 at hCB2 [1] (setting [7]) came out at 0.13 nM; at mCB2 [2] (setting [8]) it was 0.09 nM. For the same molecule, on hCB2 [1], the “functional behaviour in cAMP assay” value was “agonists”. The “mCB2 cAMP % eff (efficacy)” value on mCB2 [2] (CHO-K1 cells expressing mCB2) is 101%. Besides, the “EC50 ratio hCB1/hCB2” value at hCB1 [3] turned out to be 563. Moreover, the “times higher hCB2 affinity compared to 12” value at hCB2 [4] (Ki comparison) is given as “about 4”. Also, the “times higher hCB2 affinity compared to MA2” value at hCB2 [4] (Ki comparison) is listed as “about 100”. In addition, at hCB2 [4] (Ki comparison), the “times higher hCB2 affinity compared to NE40” value worked out at 5. For the same molecule, the Ki was 0.8 nM on hCB2 [4] (setting [9]), 102 nM on hCB1 [5] (setting [10]) and 2.6 nM at mCB2 [6] (setting [11]). Besides, at hCB1 [5], the “Ki ratio hCB1/hCB2” value came out at 127.
For the molecule `CCCCOc1c(OC)ccc2cc(C(=O)NC3CCCCC3)c(=O)[nH]c12` [NE40, reference compound], on hCB2 [1] (CHO-K1 cells expressing hCB2), the “hCB2 cAMP % eff (efficacy)” value is reported as −178%. Also, the figures for the EC50 at hCB2 [1] (setting [7]) and on mCB2 [2] (setting [8]) were 8 nM and 11 nM, respectively. For the same molecule, the “functional behaviour in cAMP assay” value on hCB2 [1] is “inverse agonist”. Besides, the “mCB2 cAMP % eff (efficacy)” value on mCB2 [2] (CHO-K1 cells expressing mCB2) is recorded as −128%. In addition, the “EC50 ratio hCB1/hCB2” value at hCB1 [3] is reported as above 1250. Besides, the Ki amounted to 4 nM on hCB2 [4] (setting [9]), 1040 nM on hCB1 [5] (setting [10]) and 2 nM on mCB2 [6] (setting [11]). The “species difference in binding affinity” value on hCB2 [4] (hCB2 versus mCB2) is “no species difference”. In addition, the “Ki ratio hCB1/hCB2” value at hCB1 [5] is 241.
For `Cc1c(CCN2CCOCC2)c2cc(O[11CH3])ccc2n1C(=O)c1cccc(Cl)c1Cl` [[^11C]GW405833], in the assay on CB2, the “binding affinity for CB2” value is 35 nM.
For `Cc1c(CCN2CCOCC2)c2cc(OCC[18F])ccc2n1C(=O)c1cccc(Cl)c1Cl` [[^18F]FE-GW405833], the “binding affinity for CB2” value in the assay on CB2 was 27 nM.
